This passage reports IC50 results from ChEMBL document CHEMBL4118108, “UNC-51-like Kinase 1: From an Autophagic Initiator to Multifunctional Drug Target” (J Med Chem, 2018).

Experiment [1] has as its target T1, Serine/threonine-protein kinase ULK2 (Homo sapiens, UniProt Q8IYT8).
T1 sequence (Q8IYT8 whole entry): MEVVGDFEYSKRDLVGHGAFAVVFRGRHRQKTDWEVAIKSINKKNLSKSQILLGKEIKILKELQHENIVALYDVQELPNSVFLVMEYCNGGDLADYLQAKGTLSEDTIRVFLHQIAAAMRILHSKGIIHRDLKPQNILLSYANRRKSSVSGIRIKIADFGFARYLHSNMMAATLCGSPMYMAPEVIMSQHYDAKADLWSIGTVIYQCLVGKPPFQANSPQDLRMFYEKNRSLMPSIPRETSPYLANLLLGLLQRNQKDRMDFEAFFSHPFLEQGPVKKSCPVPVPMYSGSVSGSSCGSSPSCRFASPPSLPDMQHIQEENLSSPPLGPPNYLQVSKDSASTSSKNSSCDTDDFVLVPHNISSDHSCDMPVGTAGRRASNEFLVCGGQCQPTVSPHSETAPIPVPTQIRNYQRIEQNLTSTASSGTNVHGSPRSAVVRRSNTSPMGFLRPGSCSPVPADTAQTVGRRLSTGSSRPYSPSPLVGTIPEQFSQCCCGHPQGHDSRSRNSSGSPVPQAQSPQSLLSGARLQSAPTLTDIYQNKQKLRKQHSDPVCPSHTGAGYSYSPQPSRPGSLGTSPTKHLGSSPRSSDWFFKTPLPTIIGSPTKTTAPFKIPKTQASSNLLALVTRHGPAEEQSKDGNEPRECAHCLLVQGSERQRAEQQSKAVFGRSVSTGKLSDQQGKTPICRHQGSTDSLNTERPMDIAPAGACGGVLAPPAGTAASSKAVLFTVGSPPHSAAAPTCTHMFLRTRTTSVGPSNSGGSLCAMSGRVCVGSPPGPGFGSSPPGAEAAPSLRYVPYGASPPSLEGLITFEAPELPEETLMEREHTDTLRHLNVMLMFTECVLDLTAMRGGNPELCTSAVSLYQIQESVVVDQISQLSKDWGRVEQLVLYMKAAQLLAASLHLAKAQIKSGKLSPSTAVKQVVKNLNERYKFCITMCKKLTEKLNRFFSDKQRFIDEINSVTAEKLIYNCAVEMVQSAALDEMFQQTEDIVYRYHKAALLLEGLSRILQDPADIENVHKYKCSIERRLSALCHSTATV
Briefly: Inhibition of GST-tagged ULK2 (unknown origin).

Experiment [2] deals with MDA-MB-231. Put plainly: Antiproliferative activity against human MDA-MB-231 cells by MTT assay. It counts as functional, cell-based.

The structures appear in SMILES notation.

Compound `CNC(=O)c1ccccc1Oc1nc(Nc2cc(OC)c(OC)c(OC)c2)ncc1Br` yielded an IC50 in experiment [1] of 711 nM.

Take `CC(C)CN(CC(=O)N1CCN(CC(OCc2ccc3ccccc3c2)c2ccc(Cl)cc2Cl)CC1)CC(C)C` (configuration not stated): 1660 nM corresponded to half-maximal inhibition in experiment [2] (IC50).
